Data taken from PMC7792806, “Development of Second Generation Activity-Based Chemical Probes for Sirtuins” (Molecules, 2020).

Columns and labels:
[1] = tested on: HEK293 cells overexpressing SIRT5; test: Cellular NAD+ measurement, NAD+ cycling assay; type: cell-based, human; conditions: 1 mM for 6 h
Protocol: HEK293 cells overexpressing SIRT5 were subjected to a treatment known to increase the cellular NAD^+ level.
To the cell pellet was added 30 μL of ice-cold 7% perchloric acid; then, the sample was vortexed for 30 s and then sonicated on ice for 5 min. The vortex–sonication cycle was repeated three times. Then, the sample was centrifuged for 3 min at room temperature. Clear supernatant was taken out and neutralized to pH 7 with 3 M NaOH and 1 M phosphate buffer (pH 9). NAD^+ level was then measured using NAD^+ cycling assay as described previously [14].

SIRT5 = molecular target: T1, SIRT5 (Homo sapiens, UniProt Q9NXA8); test: In-cell labeling of SIRT5 with probe 2B, cellular imaging; type: cell-based; conditions: 1 mM NR for 6 h, then 50 μM probe 2B, 15 min irradiation at 365 nm; compared with control cells
T1 construct: endogenous in cells; host or cells: HEK293
T1 sequence (Q9NXA8 37-310): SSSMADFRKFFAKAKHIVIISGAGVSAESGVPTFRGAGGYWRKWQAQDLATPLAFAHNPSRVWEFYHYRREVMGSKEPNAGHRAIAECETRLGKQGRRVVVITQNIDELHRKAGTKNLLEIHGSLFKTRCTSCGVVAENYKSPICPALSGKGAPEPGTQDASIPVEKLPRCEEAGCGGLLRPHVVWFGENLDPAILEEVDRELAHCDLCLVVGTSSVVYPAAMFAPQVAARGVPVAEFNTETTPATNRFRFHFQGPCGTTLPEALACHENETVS
Protocol: HEK293 cells overexpressing SIRT5 were subjected to a treatment known to increase the cellular NAD^+ level. […] Then, the cells were incubated with 50 μM probe 2B and irradiated at 365 nm for 15 min on ice. Subsequently, the cells were treated with freshly prepared “click” staining mix as described in “Materials and Methods”. After the “click” reaction, cells were incubated with anti-SIRT5 antibody before the images were acquired.
Cells were seeded in 35 mm glass-bottom dishes (MatTek, Ashland, MA, USA) and grew until 70 to 80% confluence. Then, the cells were incubated in the presence or absence of 1 mM NR for 6 h before the medium was discarded. The cells were gently rinsed with fresh growth medium three times. Subsequently, the cells were incubated with 50 μM probe 2B for 1 h before the culture dishes were placed on ice. The cells were irradiated at 365 nm in cold room for 15 min followed by fixation with 4% paraformaldehyde and permeabilization with 0.2% Triton X-100 in PBS. Then, the cells were treated with freshly prepared “click” staining mix (10 μM TAMRA-azide, 1 mM CuSO4 and 1 mM TBTA in 2 mL of deionized water), followed by the addition of 2 mM TCEP. […]
Fluorescence microscopy was carried out on a Leica TCS SP5 confocal microscope (Leica Microsystems, Mannheim, Germany). […] Images were acquired and processed using Leica Application Suite Advanced Fluorescence (LAS AF) software.

SIRT1 [2] = test: Acetylation level of p53 lysine 382 in cells; type: cell-based; conditions: Figure S3
SIRT2 = molecular target: T2, SIRT2 (Homo sapiens, UniProt Q8IXJ6); test: Photoaffinity labeling of recombinant SIRT2, in-gel fluorescence; type: biochemical
T2 construct: SIRT2 (38-356); made in house
T2 sequence (Q8IXJ6 38-356): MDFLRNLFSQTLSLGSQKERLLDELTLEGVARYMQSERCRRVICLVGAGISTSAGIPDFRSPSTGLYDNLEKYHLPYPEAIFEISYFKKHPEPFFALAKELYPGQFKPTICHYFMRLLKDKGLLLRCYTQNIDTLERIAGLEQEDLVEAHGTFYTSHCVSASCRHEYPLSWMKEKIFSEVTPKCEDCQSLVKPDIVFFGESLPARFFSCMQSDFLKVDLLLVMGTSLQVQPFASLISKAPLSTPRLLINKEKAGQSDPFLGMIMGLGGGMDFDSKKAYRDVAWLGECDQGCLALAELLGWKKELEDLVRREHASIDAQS
Protocol: (§1) The improved inhibitory effects of the 2nd generation ABPs prompted us to evaluate the labeling efficiency of these new probes. We first compared the abilities of benzophenone-based probe 1A and diazirine-based probe 2A to label recombinant SIRT2. The enzyme was incubated with NAD^+ and the probe, and then irradiated at 365 nm for 1 h. Subsequently, the sample was conjugated to TAMRA-azide via Cu(I)-catalyzed “click” reaction. The sample was resolved by SDS-PAGE and detected by in-gel fluorescence scanning.
Figure 3 Comparison of labeling efficiencies of probes 1A and 2A. (A) Concentration-dependent labeling of SIRT2. SIRT2 (10 μM) was incubated with 500 μM NAD^+ and indicated concentrations of probe 1A or 2A in 100 mM phosphate buffer pH 7.5. The samples were incubated at 37 °C for 10 min, subjected to UV irradiation for 1 h, and then “click” conjugated to TAMRA-azide as described in “Materials and Methods”; (B) and (C) Time-dependent labeling of SIRT2 by probe 2A. The labeling reached plateau within 20 min.
A typical labeling experiment was performed as follows: in a 0.7 mL Eppendorf tube, purified recombinant human sirtuin (10 μM) was incubated with NAD^+ (500 μM) and activity-based probe at 37 °C for 10 min. […] Then, destained gel was analyzed with in-gel fluorescence scanning using a Biorad ChemiDoc MP imager (excitation 532 nm, 580 nm cut-off filter and 30 nm band-pass). […]

[3] = tested on: SIRT1, SIRT2, SIRT3, and SIRT6; test: Labeling of individual recombinant sirtuins, in-gel fluorescence; type: biochemical, human; conditions: Figure S1
Protocol: as §1
A typical labeling experiment was performed as follows: in a 0.7 mL Eppendorf tube, purified recombinant human sirtuin (10 μM) was incubated with NAD^+ (500 μM) and activity-based probe at 37 °C for 10 min. The sample was transferred to a clear-bottom 96-well plate, placed on ice, and irradiated at 365 nm with a UV-lamp in a cold room. Subsequently, ingredients of the “click-chemistry” including azide-fluor 545, CuSO4, reducing agent (tris(2-carboxyethyl)phosphine, TCEP) and stabilizing agent (tris[(1-benzyl-1H-1,2,3-triazol-4-yl)methyl]amine, TBTA) were added, and the sample was gently agitated at 250 rpm on a microshaker at room temperature for 30 min. Then, the sample was resolved by SDS-PAGE. […] Then, destained gel was analyzed with in-gel fluorescence scanning using a Biorad ChemiDoc MP imager (excitation 532 nm, 580 nm cut-off filter and 30 nm band-pass). […]

SIRT3 = molecular target: T3, SIRT3 (Homo sapiens, UniProt Q9NTG7); test: Sirtuin inhibition assay (HPLC), SIRT3; type: biochemical; conditions: ratio of IC50s
T3 construct: SIRT3 (102-399); made in house
T3 sequence (Q9NTG7 102-399): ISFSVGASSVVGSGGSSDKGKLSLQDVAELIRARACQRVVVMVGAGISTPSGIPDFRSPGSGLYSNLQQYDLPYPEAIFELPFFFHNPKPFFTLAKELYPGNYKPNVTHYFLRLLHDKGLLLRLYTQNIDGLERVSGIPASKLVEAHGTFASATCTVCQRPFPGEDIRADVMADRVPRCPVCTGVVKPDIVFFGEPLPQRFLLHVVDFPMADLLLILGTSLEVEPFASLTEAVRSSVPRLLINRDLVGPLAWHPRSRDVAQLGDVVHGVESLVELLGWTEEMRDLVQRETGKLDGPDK
Protocol: (§2) Plasmids of SIRT1 (full length), SIRT2 (38-356), SIRT3 (102-399), and SIRT5 (34-302) were generous gifts from Dr. Hening Lin (Cornell University, Ithaca, NY, USA). SIRT6 was a gift from Cheryl Arrowsmith (Addgene plasmid #28271). The proteins were expressed and purified according to previously published protocols. The identity of the protein was confirmed by tryptic digestion followed by LC-MS/MS analysis performed at the Vermont Genetic Network (VGN) Proteomics Facility. Protein concentrations were determined by Bradford assay (Thermo Fisher Scientific, Rockford, IL, USA).
(§3) A typical reaction contained 500 μM NAD^+ and 500 μM peptide substrate (H3K9Ac for SIRT2, SIRT3 and SIRT6, p53K382Ac for SIRT1 and SIRT5) of varying concentrations of a small molecule probe in 100 mM phosphate buffer pH 7.5. The reactions were initiated by the addition of 10 μM of sirtuin and were incubated at 37 °C before being quenched by 8 μL of 10% TFA. The incubation time was controlled so that the conversion of substrate was less than 15%. The samples were then injected on an HPLC fitted to a Macherey-Nagel Nucleosil C18 column. NAD^+, NAM and AADPR (acetyl-ADP-ribose) peaks were resolved using a gradient of 0 to 20% methanol in 20 mM ammonium acetate. Chromatograms were analyzed at 260 nm. Reactions were quantified by integrating areas of peaks corresponding to NAD^+ and AADPR. Rates were plotted as a function of small molecule probe concentration, and points were fitted to the following equation:ν(%) = ν0(%) − [ν0(%)(10^x)/(10^x + IC50)](1) where ν(%) represents the turnover rate expressed as percent enzymatic activity remaining, and ν0(%) represents the uninhibited turnover rate expressed as an enzymatic activity of 100%. The variable x represents the log[probe] in nanomolar. IC50 values were derived from this equation.

SIRT1 [4] = molecular target: T4, SIRT1 (Homo sapiens, UniProt Q96EB6); test: Sirtuin inhibition assay (HPLC), SIRT1; type: biochemical; conditions: ratio of IC50s
T4 construct: Plasmids of SIRT1 (full length); made in house
T4 sequence (Q96EB6 1-747): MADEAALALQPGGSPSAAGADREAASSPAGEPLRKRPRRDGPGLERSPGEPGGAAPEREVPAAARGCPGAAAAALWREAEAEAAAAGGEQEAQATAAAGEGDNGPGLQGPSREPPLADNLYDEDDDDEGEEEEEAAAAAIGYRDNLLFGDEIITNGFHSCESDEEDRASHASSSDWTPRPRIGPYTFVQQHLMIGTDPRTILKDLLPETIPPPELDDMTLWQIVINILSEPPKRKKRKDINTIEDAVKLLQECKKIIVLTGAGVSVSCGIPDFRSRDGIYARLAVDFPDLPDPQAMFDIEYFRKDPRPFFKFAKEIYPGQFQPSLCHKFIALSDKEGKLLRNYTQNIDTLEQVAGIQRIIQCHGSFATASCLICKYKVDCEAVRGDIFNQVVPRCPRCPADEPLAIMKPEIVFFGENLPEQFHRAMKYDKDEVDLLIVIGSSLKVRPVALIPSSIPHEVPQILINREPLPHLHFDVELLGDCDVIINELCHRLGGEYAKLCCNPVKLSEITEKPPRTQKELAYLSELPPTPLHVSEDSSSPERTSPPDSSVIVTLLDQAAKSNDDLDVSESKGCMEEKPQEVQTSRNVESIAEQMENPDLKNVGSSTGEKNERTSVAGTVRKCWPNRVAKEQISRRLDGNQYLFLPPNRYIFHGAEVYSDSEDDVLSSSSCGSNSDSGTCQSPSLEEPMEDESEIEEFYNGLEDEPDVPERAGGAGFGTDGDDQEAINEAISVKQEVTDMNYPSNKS
Protocol: as §2, §3

| SMILES | increase of cellular NAD+ concentration [1] | labeling intensity of SIRT5 by probe 2B in cells (SIRT5) | acetylation level of p53 lysine 382, combined with TSA (SIRT1 [2]) | labeling intensity of SIRT2 (SIRT2; 10 μM SIRT2, 500 μM NAD+, 1 h irradiation at 365 nm, all concentrations examined) | irradiation time to saturation of SIRT2 labeling (SIRT2; UV irradiation at 365 nm) | labeling of recombinant sirtuins [3] | increased inhibition of SIRT3 compared with probe 1A (SIRT3) | increased inhibition of SIRT1 compared with probe 1A (SIRT1 [4]) |
| --- | --- | --- | --- | --- | --- | --- | --- | --- |
| NC(=O)c1ccc[n+]([C@@H]2O[C@H](CO)[C@@H](O)[C@H]2O)c1 [NR, Nicotinamide riboside] | 170% | increased labeling intensity | – | – | – | – | – | – |
| C#CCCCC1(CCC(=O)N[C@@H](CCCCNC(C)=S)C(=O)N[C@@H](C)C(=O)N[C@@H](C)C(=O)OC)N=N1 [Probe 2A] | – | – | increase the acetylation level of p53 lysine 382 | more intensively than probe 1A | ≤ 20 min | labeled SIRT1, SIRT2, SIRT3, and SIRT6 to different extents in dose-dependent manners | 2 fold | 3 fold |
